# Reference: publication PMC9404711 (Antibiotics, 2022)
# Like-named read-outs stand apart in the source and are kept apart here. Positions of bridges follow the written chain, without caps; N, C: chain ends. Non-standard residues stand in square brackets, D forms with d. Residues, ends and D or L forms follow the SMILES beside them. *: point of attachment. X1 = CC[C@H](C)CCCCC(=O)*; Dab = NCC[C@H](N)C(=O)O; Butyryl = CCCC(=O)*
# Experiments:
# E. coli (ATCC 25922) = assay type: cell-based, Escherichia coli
# Protocol: (§1) The following bacteria were grown in cation-adjusted Muller-Hinton broth at 37 °C with shaking: A. baumannii (ATCC 19606), E. coli (ATCC 25922), K. pneumoniae (ATCC 13883), P. aeruginosa (ATCC 27853), and S. aureus (ATCC 29213).
# (§2) The MIC experiments were performed in triplicate, as described in Jensen et al.. Briefly, all peptide stock solutions were prepared by dissolving each peptide in Milli-Q water to obtain a concentration of 10 mg/mL. A bacterial concentration of 10^6 CFU/mL was obtained through the dilution of an overnight culture (MHB-II medium). When the overnight culture was prepared, the OD was measured using a spectrophotometer and when an OD value between 0.2 and 0.4 was obtained, the culture was diluted to OD = 0.002. The MIC determination was carried out in 96-well polypropylene microtitre plates. […] A final bacterial inoculum of 5 × 10^5 CFU/mL per well was obtained by adding 50 μL bacterial suspension to the microtiter plates. The plates were incubated at 37 °C for 18–24 h. To verify the CFU, 10 μL of bacteria suspension was transferred to 990 μL 0.9 % saline solution, from which a 10-fold dilution was carried out. Then, 100 μL of the dilution was plated on an LB plate and left for bacterial growth overnight at 37 °C. Colistin and vancomycin were used as the positive controls.
# [1] = system: K. pneumoniae (ATCC 13883); assay type: cell-based, Klebsiella pneumoniae
# Protocol: as §1, §2
# [2] = system: A. baumannii (ATCC 19606); assay type: cell-based, Acinetobacter baumannii
# Protocol: as §1, §2
# [3] = system: P. aeruginosa (ATCC 27853); assay type: cell-based, Pseudomonas aeruginosa
# Protocol: as §1, §2
# S. aureus (ATCC 29213) = experiment: MIC determination, broth microdilution; assay type: cell-based, Staphylococcus aureus; conditions: for MIC SA: S. aureus ATCC 29213, MHB-II, 37 °C, 18–24 h, triplicate
# Protocol: as §1, §2
# human erythrocytes = conditions: 150 μM peptide; 0.5% (v/v) red blood cell suspension in PBS, 1 h at 37 °C, absorbance 414 nm; melittin positive control, PBS negative control; three wells
# Protocol: PBS served as the negative control and 5 μM melittin served as the positive control. All melittin solutions were prepared in Protein LoBind Eppendorf tubes to prevent the adsorption of melittin to the inner surface of the tubes.
# Preparation of peptide solutions and melittin: A 5 μM melittin solution in PBS was prepared the day before the hemolysis experiment. First, 150 μL of this solution was transferred to each of the positive control wells and stored in the fume hood to coat the wells. On the day of the experiment, the melittin solution was discarded and the wells were washed with 3 × PBS. A 2.5 μM melittin solution in PBS was prepared and 75 μL was transferred to the wells. PBS (150 μL) was used as the negative control. A solution of each peptide was prepared by dissolving the peptide in 0.5 mL PBS to obtain a concentration of 300 μM. Each peptide solution (150 μL) was transferred to the wells in three wells each in row A, and the plate was diluted down.
# Preparation of the red blood cell suspension: 1 mL of type O- whole blood in citrate was transferred to a cryotube. The whole blood was washed with 3 × PBS; adding 3, 3, and 4 mL of PBS, respectively. In between, the blood was centrifuged for 8 min (3000, 3000, and 4000 rpm, respectively) and the supernatant was removed after each centrifugation. A 0.5% (v/v) blood suspension was prepared by adding 40 μL of the washed blood cells to 8 mL of PBS. Then, 75 μL of the red blood cell suspension was transferred to each well and mixed gently. The plate was sealed and incubated for 1 h at 37 °C. After incubation, the plate was centrifuged at 4000 rpm for 10 min. Afterwards, 60 μL of the supernatant from each well was quickly transferred to an ELISA plate.
# The absorbance was determined at 414 nm, and Equation (1) below was used to calculate the hemolytic activity of the peptides.
# [4] = Hydrophobicity by analytical RP-HPLC (%B at elution); assay type: physicochemical; conditions: chromatographic, analytical reversed-phase HPLC, Waters Symmetry C18 5 μm 4.6 × 250 mm; A: H2O + 0.1% TFA, B: 90:10 ACN-H2O + 0.1% TFA
# Protocol: Peptide purity was determined as described previously by analytical RP-HPLC using a Waters 717 plus Autosampler, In-line Degasser AF, 600 Controller, and 2996 Photodiode Array Detector; the column used was a Waters Symmetry C18 column (5 μm, 4.6 mm × 250 mm, Milford, MA, USA). An aqueous acetonitrile (ACN) gradient with 0.1% TFA added (mixing eluent A: H2O + 0.1% TFA and eluent B: 90:10 ACN-H2O + 0.1% TFA) was employed using milli-Q water. Preparative RP-HPLC was performed by using a Waters XSelect Peptide CSH C18 OBDTM column (5 μm, 19 mm × 250 mm, Milford, MA, USA) with the same eluents as for analytical HPLC.
# *Hydrophobicity as indicated by the percentage of mobile phase B (%B) at the peak elution time on analytical
# [5] = E. coli ATCC 25922, MHB-II, inoculum 5 × 10^5 CFU/mL, 37 °C, 18–24 h, triplicate
# [6] = K. pneumoniae ATCC 13883, MHB-II, inoculum 5 × 10^5 CFU/mL, 37 °C, 18–24 h, triplicate
# [7] = A. baumannii ATCC 19606, MHB-II, inoculum 5 × 10^5 CFU/mL, 37 °C, 18–24 h, triplicate
# [8] = P. aeruginosa ATCC 27853, MHB-II, inoculum 5 × 10^5 CFU/mL, 37 °C, 18–24 h, triplicate
# [9] = value in brackets, E. coli ATCC 25922, MHB-II, 37 °C, 18–24 h, triplicate
# [10] = value in brackets, K. pneumoniae ATCC 13883, MHB-II, 37 °C, 18–24 h, triplicate
# [11] = value in brackets, A. baumannii ATCC 19606, MHB-II, 37 °C, 18–24 h, triplicate
# [12] = value in brackets, P. aeruginosa ATCC 27853, MHB-II, 37 °C, 18–24 h, triplicate
Structure (SMILES),MIC EC (E. coli (ATCC 25922); ATCC 25922) [µM],MIC EC (E. coli (ATCC 25922); [5]) [µg/mL],MIC KP ([1]; ATCC 13883) [µM],"MIC KP [1, 6] [µg/mL]","MIC AB [2, 7] [µg/mL]",MIC AB ([2]; ATCC 19606) [µM],MIC PA ([3]; ATCC 27853) [µM],"MIC PA [3, 8] [µg/mL]",MIC SA (S. aureus (ATCC 29213); inoculum 5 × 10^5 CFU/mL) [µg/mL],"MIC (S. aureus (ATCC 29213); Staphylococcus aureus, ATCC29213, read-out: MIC SA) [µM]",MIC SA (S. aureus (ATCC 29213); value in brackets) [µM],MIC EC (E. coli (ATCC 25922); [9]) [µM],"MIC KP [1, 10] [µM]","MIC AB [2, 11] [µM]","MIC PA [3, 12] [µM]",% hemolysis of human erythrocytes (human erythrocytes) [%],%B (hydrophobicity: percentage of mobile phase B at the peak elution time) [4] [%B]
"CC[C@H](C)CCCCC(=O)N[C@@H](CCN)C(=O)N[C@H](C(=O)N[C@@H](CCN)C(=O)N[C@H]1CCNC(=O)[C@H]([C@@H](C)O)NC(=O)[C@H](CCN)NC(=O)[C@H](CCN)NC(=O)[C@H](CC(C)C)NC(=O)[C@@H](CC(C)C)NC(=O)[C@H](CCN)NC1=O)[C@@H](C)O [Colistin, reference compound] (X1-[Dab]T[Dab][Dab][Dab][dL]L[Dab][Dab]T; lactam 4-C (inferred); N-terminus assumed)",0.2,0.25,0.4,0.5,0.25,0.2,0.4,0.5,–,–,–,–,–,–,–,–,–
"CN[C@H](CC(C)C)C(=O)N[C@H]1C(=O)N[C@@H](CC(N)=O)C(=O)N[C@H]2C(=O)N[C@H]3C(=O)N[C@H](C(=O)N[C@H](C(=O)O)c4cc(O)cc(O)c4-c4cc3ccc4O)[C@H](O)c3ccc(c(Cl)c3)Oc3cc2cc(c3O[C@@H]2O[C@H](CO)[C@@H](O)[C@H](O)[C@H]2O[C@H]2C[C@](C)(N)[C@H](O)[C@H](C)O2)Oc2ccc(cc2Cl)[C@H]1O [Vancomycin, reference compound]",–,–,–,–,–,–,–,–,0.5,0.35,–,–,–,–,–,–,–
CCCC(=O)N[C@H](CCCCN)C(=O)N[C@H](CCCCN)C(=O)N[C@H](CC(C)C)C(=O)N[C@H](Cc1ccccc1)C(=O)N[C@H](CCCCN)C(=O)N[C@H](CCCCN)C(=O)N[C@@H](C(=O)N[C@H](CC(C)C)C(=O)N[C@H](CCCNC(=N)N)C(=O)N[C@H](Cc1ccc(O)cc1)C(=O)N[C@H](CC(C)C)C(N)=O)[C@H](C)CC [compound 1] (Butyryl-[dK][dK][dL][dF][dK][dK][dI][dL][dR][dY][dL]-NH2),–,2,–,4,2,–,–,32,64,–,42.1,1.3,2.6,1.3,21.1,100,–
CC[C@@H](C)[C@@H](NC(=O)[C@@H](CCCCN)NC(=O)[C@@H](CCCCN)NC(=O)[C@@H](Cc1ccccc1)NC(=O)[C@@H](CC(C)C)NC(=O)[C@@H](CCCCN)NC(=O)[C@H](N)CCCCN)C(=O)N1CCCC[C@H](C(N)=O)NC(=O)[C@@H](Cc2ccc(O)cc2)NC(=O)[C@@H](CCCNC(=N)N)NC(=O)[C@@H](CC(C)C)NC(=O)C1 [compound 8],–,> 64,–,> 64,> 64,–,–,> 64,> 64,–,> 42.6,> 42.6,> 42.6,> 42.6,> 42.6,3,–
CCCCCCCCCCCC(=O)N[C@H](CCCCN)C(=O)N[C@H](CCCCN)C(=O)N[C@H](CC(C)C)C(=O)N[C@H](Cc1ccccc1)C(=O)N[C@H](CCCCN)C(=O)N[C@H](CCCCN)C(=O)N[C@@H](C(=O)N[C@H](CC(C)C)C(=O)N1CCCC[C@H](C(N)=O)NC(=O)[C@@H](Cc2ccc(O)cc2)NC(=O)[C@@H](CCCNC(=N)N)NC(=O)C1)[C@H](C)CC [compound 11],–,4,–,8,4,–,–,4,4,–,2.3,2.3,4.6,2.3,2.3,–,66.2
CCCCCCCCCCCCCC(=O)N[C@H](CCCCN)C(=O)N[C@H](CCCCN)C(=O)N[C@H](CC(C)C)C(=O)N[C@H](Cc1ccccc1)C(=O)N[C@H](CCCCN)C(=O)N[C@H](CCCCN)C(=O)N[C@@H](C(=O)N[C@H](CC(C)C)C(=O)N1CCCC[C@H](C(N)=O)NC(=O)[C@@H](Cc2ccc(O)cc2)NC(=O)[C@@H](CCCNC(=N)N)NC(=O)C1)[C@H](C)CC [compound 12],–,8,–,4,16,–,–,16,8,–,4.6,4.6,2.3,9.3,9.3,–,70.0
CCCCCCCCCCCC(=O)N[C@H](CCCCN)C(=O)N[C@H](CCCCN)C(=O)N[C@H](CC(C)C)C(=O)N[C@H](Cc1ccccc1)C(=O)N[C@H](CCCCN)C(=O)N[C@H](CCCCN)C(=O)N[C@@H](C(=O)N1CCCC[C@H](C(N)=O)NC(=O)[C@@H](Cc2ccc(O)cc2)NC(=O)[C@@H](CCCNC(=N)N)NC(=O)[C@@H](CC(C)C)NC(=O)C1)[C@H](C)CC [compound 14],–,4,–,16,4,–,–,4,4,–,2.4,2.4,9.5,2.4,2.4,–,65.1
CCCCCCCCCCCC(=O)N[C@H](CCCCN)C(=O)N[C@H](CCCCN)C(=O)N[C@H](CC(C)C)C(=O)N[C@H](Cc1ccccc1)C(=O)N[C@H](CCCCN)C(=O)N[C@H](CCCCN)C(=O)N1CCCC[C@H](C(N)=O)NC(=O)[C@@H](Cc2ccc(O)cc2)NC(=O)[C@@H](CCCNC(=N)N)NC(=O)[C@@H](CC(C)C)NC(=O)[C@@H]([C@H](C)CC)NC(=O)C1 [compound 17],–,8,–,–,4,–,–,8,4,–,2.4,4.7,–,2.4,4.8,–,65.5
CCCCCCCCCCCCCC(=O)N[C@H](CCCCN)C(=O)N[C@H](CCCCN)C(=O)N[C@H](CC(C)C)C(=O)N[C@H](Cc1ccccc1)C(=O)N[C@H](CCCCN)C(=O)N[C@H](CCCCN)C(=O)N1CCCC[C@H](C(N)=O)NC(=O)[C@@H](Cc2ccc(O)cc2)NC(=O)[C@@H](CCCNC(=N)N)NC(=O)[C@@H](CC(C)C)NC(=O)[C@@H]([C@H](C)CC)NC(=O)C1 [compound 18],–,8,–,32,4,–,–,16,4,–,2.3,4.6,18.7,2.3,9.3,–,78.5
